Read-outs that look alike come from different tables or passages of the source.

The results in this text go back to patent publication US20250171438A1 (Agios Pharmaceuticals, Inc., priority 2022, published 2025).

In this assay the target is T1, human PAH with the R408W mutation (Homo sapiens, UniProt P00439, R408W).
T1 construct: expressed in transfected cells
T1 sequence (P00439 1-452 R408W): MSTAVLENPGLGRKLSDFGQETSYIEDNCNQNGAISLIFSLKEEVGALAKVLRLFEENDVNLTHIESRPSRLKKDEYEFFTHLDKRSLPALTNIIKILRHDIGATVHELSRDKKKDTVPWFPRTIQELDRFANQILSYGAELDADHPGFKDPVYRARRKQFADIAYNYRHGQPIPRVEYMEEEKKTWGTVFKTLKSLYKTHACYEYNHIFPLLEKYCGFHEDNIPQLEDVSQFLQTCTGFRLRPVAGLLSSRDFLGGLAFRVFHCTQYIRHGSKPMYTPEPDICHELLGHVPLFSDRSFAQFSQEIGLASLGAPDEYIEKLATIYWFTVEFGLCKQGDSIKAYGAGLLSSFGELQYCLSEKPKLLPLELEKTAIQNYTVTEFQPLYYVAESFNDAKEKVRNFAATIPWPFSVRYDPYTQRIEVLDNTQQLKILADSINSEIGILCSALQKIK
Put plainly: Cell Based Phenylalanine Flux Assay. As to conditions: A375 cells expressing human R408W PAH, 13C-Tyrosine by LC-MS, average where tested multiple times, read-out: AC50.

As to `O=C(Cc1cnn2ccccc12)N1CCc2[nH]cnc2C1c1nc2ccccc2s1` (centres unmarked), for the setting “24 hrs with compound”, the AC50 – broadly, the concentration giving half of the maximal activity seen – is > 5000 nM.

As for `O=C(c1nnc(-c2ccn(C(F)F)n2)o1)N1CCc2[nH]cnc2[C@H]1c1nc2ccccc2s1` [Example 1873], the AC50 (24 hrs compound incubation) is < 500 nM. The same measure, in the same setting: for `N#Cc1ncoc1C(=O)N1CC2(CC2)c2[nH]cnc2[C@@H]1c1nc2ccccc2s1` [Example 1663, (R)-5-(4′-(benzo[d]thiazol-2-yl)-1′,4′,5′,6′-tetrahydrospiro[cyclopropane-1,7′-imidazo[4,5-c]pyridin]-5′-ylcarbonyl)oxazole-4-carbonitrile] the value was > 5000 nM; for `CC(C)(C)CCC(=O)N1CCc2[nH]cnc2[C@@H]1c1nc2ccccc2[nH]1` [Example 906, (R)-1-(4-(1H-benzo[d]imidazol-2-yl)-6,7-dihydro-1H-imidazo[4,5-c]pyridin-5(4H)-yl)-4,4-dimethylpentan-1-one], 1000 to 5000 nM. `O=C(c1nnc(-c2cn[nH]c2)o1)N1CCc2[nH]cnc2[C@@H]1c1nc2c(F)cccc2s1` [Example 1864, (R)-(5-(1H-pyrazol-4-yl)-1,3,4-oxadiazol-2-yl)(4-(4-fluorobenzo[d]thiazol-2-yl)-6,7-dihydro-1H-imidazo[4,5-c]pyridin-5(4H)-yl)methanone]: the concentration at half-maximal activity (AC50) (24 hrs compound incubation) was 1000 to 5000 nM. With `Cc1ncoc1C(=O)N1CCc2[nH]cnc2[C@H]1c1nc2c(F)cccc2s1` [Example 1319, (S)-(4-(4-fluorobenzo[d]thiazol-2-yl)-6,7-dihydro-1H-imidazo[4,5-c]pyridin-5(4H)-yl)(4-methyloxazol-5-yl)methanone], under “24 hrs compound incubation”, the AC50 was < 500 nM. `COCc1nc(Br)c(C(=O)N2CCc3[nH]cnc3[C@H]2c2nc3c(F)cccc3s2)o1` [Example 1776]: the concentration at half-maximal activity (AC50) (24 hrs compound incubation) is < 500 nM.

As for `C[C@@H](O)c1nc(C(F)F)c(C(=O)N2CCc3[nH]cnc3[C@@H]2c2nc3c(C(F)(F)F)cccc3s2)o1` [Example 2110, (4-(difluoromethyl)-2-((R)-1-hydroxyethyl)oxazol-5-yl)((R)-4-(4-(trifluoromethyl)benzo[d]thiazol-2-yl)-6,7-dihydro-1H-imidazo[4,5-c]pyridin-5(4H)-yl)methanone], the AC50 (24 hrs compound incubation) lay within 1000 to 5000 nM. `Cc1nc(-c2ccccc2)c(C(=O)N2CCc3[nH]cnc3[C@H]2c2nc3ccccc3s2)o1` [Example 1520]: the AC50 (24 hrs compound incubation) was in the range of 500 to 1000 nM. Turning to `O=C(c1nccs1)N1CCc2nc[nH]c2C1c1nc2ccc(F)cc2s1` (centres unmarked) [listing 1 of 2 here], where the note is “24 hrs with compound”, the AC50 lay in the range of 1000 to 5000 nM. With `Cn1nc(C2CC2)nc1C(=O)N1CCc2[nH]cnc2C1c1nc2c(F)cccc2s1` (centres unmarked), the AC50 (24 hrs with compound) is 1000 to 5000 nM. In the case of `CC1(c2nc(C(F)F)c(C(=O)N3CCc4[nH]cnc4[C@H]3c3nc4ccccc4s3)o2)CC1` [Example 1851], under “24 hrs compound incubation”, the AC50 was < 500 nM. `Fc1ccc2nc([C@@H]3c4nc[nH]c4CCN3Cc3nccs3)[nH]c2c1` [Example 974, (S)-2-((4-(6-fluoro-1H-benzo[d]imidazol-2-yl)-6,7-dihydro-1H-imidazo[4,5-c]pyridin-5(4H)-yl)methyl)thiazole]: for the setting “24 hrs compound incubation”, the AC50 was < 500 nM. On to `N#Cc1nc(N2CCOCC2)oc1C(=O)N1CCc2[nH]cnc2[C@@H]1c1nc2ccccc2s1` [Example 1706, (R)-5-(4-(benzo[d]thiazol-2-yl)-4,5,6,7-tetrahydro-1H-imidazo[4,5-c]pyridine-5-carbonyl)-2-morpholinooxazole-4-carbonitrile], for which, for the setting “24 hrs compound incubation”, the AC50 was > 5000 nM. In the case of `Cc1nnc(C(=O)N2CC(C)c3[nH]cnc3C2c2nc3ccccc3s2)o1` (centres unmarked), under “24 hrs with compound”, the half-maximal activity concentration (AC50) is 1000 to 5000 nM. On the same count and under the same terms, for `Cc1nc(C(C)(C)O)oc1C(=O)N1CC(C)c2[nH]cnc2C1c1nc2c(F)cccc2s1` (centres unmarked) the value was > 5000 nM. For `O=C(c1nnc(-c2ccc(C(F)(F)F)cn2)o1)N1CCc2[nH]cnc2[C@H]1c1nc2c(F)cccc2s1` [Example 1848, (S)-(4-(4-fluorobenzo[d]thiazol-2-yl)-6,7-dihydro-1H-imidazo[4,5-c]pyridin-5(4H)-yl)(5-(5-(trifluoromethyl)pyridin-2-yl)-1,3,4-oxadiazol-2-yl)methanone], the concentration at half-maximal activity (AC50) (24 hrs compound incubation) was 1000 to 5000 nM. For the molecule `Cn1nnc(C(=O)N2CCc3[nH]cnc3C2c2nc3c(F)cccc3s2)n1` (centres unmarked), the AC50 (24 hrs with compound) fell in the range of 1000 to 5000 nM. `Cc1nnc(CCC(=O)N2CCc3[nH]cnc3C2c2nc3ccc(Br)cc3[nH]2)s1` (centres unmarked): the AC50 (24 hrs with compound) was 1000 to 5000 nM. As to `O=C(c1cnn2cc(F)ccc12)N1CCc2[nH]cnc2[C@H]1c1nc2ccc(Br)cc2[nH]1` [Example 967, (S)-(4-(6-bromo-1H-benzo[d]imidazol-2-yl)-6,7-dihydro-1H-imidazo[4,5-c]pyridin-5(4H)-yl)(6-fluoropyrazolo[1,5-a]pyridin-3-yl)methanone], under “24 hrs compound incubation”, the half-maximal activity concentration (AC50) was in the range of 500 to 1000 nM. As to `Cc1nc(C(=O)N2CCc3[nH]cnc3C2c2nc3c(F)cccc3s2)n(C)n1` (centres unmarked), the AC50 (24 hrs with compound) is > 5000 nM. Consider `O=C(CC1CC(F)C1)N1CCc2[nH]cnc2[C@@H]1c1nc2ccccc2s1` (stereo partly drawn) [Example 1246, (R)-1-(4-(benzo[d]thiazol-2-yl)-6,7-dihydro-1H-imidazo[4,5-c]pyridin-5(4H)-yl)-2-(3-fluorocyclobutyl)ethanone], for which, under “24 hrs compound incubation”, the AC50 lay within 1000 to 5000 nM. For `O=C(c1oc(-c2ccccn2)nc1C1CC1)N1CCc2[nH]cnc2[C@H]1c1nc2c(F)cccc2s1` [Example 1535], the AC50 (24 hrs compound incubation) is < 500 nM. Consider `O=C(c1oc(OCCC(F)(F)F)nc1C(F)F)N1CCc2[nH]cnc2[C@@H]1c1nc2ccccc2s1` [Example 1771, (R)-(4-(benzo[d]thiazol-2-yl)-6,7-dihydro-1H-imidazo[4,5-c]pyridin-5(4H)-yl)(4-(difluoromethyl)-2-(3,3,3-trifluoropropoxy)oxazol-5-yl)methanone], for which the AC50 (24 hrs compound incubation) was < 500 nM. Turning to `O=C(c1cnn2ccccc12)N1CCc2[nH]cnc2[C@@H]1c1nc2c(Cl)cccc2s1` [Example 1222, (R)-(4-(4-chlorobenzo[d]thiazol-2-yl)-6,7-dihydro-1H-imidazo[4,5-c]pyridin-5(4H)-yl)(pyrazolo[1,5-a]pyridin-3-yl)methanone], under “24 hrs compound incubation”, the AC50 is 1000 to 5000 nM. With `Cc1nnc(C(=O)N2CCc3[nH]cnc3C2c2nc3ccccc3[nH]2)s1` (centres unmarked), the half-maximal activity concentration (AC50) (24 hrs with compound) is > 5000 nM. For `Cn1cc(C(=O)N2CCc3[nH]cnc3[C@@H]2c2nc3ccccc3s2)c(Cl)n1` [Example 1869, (R)-(4-(benzo[d]thiazol-2-yl)-6,7-dihydro-1H-imidazo[4,5-c]pyridin-5(4H)-yl)(3-chloro-1-methyl-1H-pyrazol-4-yl)methanone], the concentration at half-maximal activity (AC50) (24 hrs compound incubation) was > 5000 nM. On the same count and under the same terms, for `O=C(Cc1nc(C(F)(F)F)cs1)N1CCc2[nH]cnc2[C@@H]1c1nc2ccccc2s1` [Example 1034, (R)-1-(4-(benzo[d]thiazol-2-yl)-6,7-dihydro-1H-imidazo[4,5-c]pyridin-5(4H)-yl)-2-(4-(trifluoromethyl)thiazol-2-yl)ethenone] the value was > 5000 nM. Consider “(R,Z)-1-(4-(1H-benzo[d]imidazol-2-yl)-6,7-dihydro-1H-imidazo[4,5-c]pyridin-5(4H)-yl)-2-(5-(prop-1-en-1-yl)-4-vinylthiazol-2-yl)ethanone [Example 904]”, for which the concentration at half-maximal activity (AC50) (24 hrs compound incubation) was > 5000 nM. Take `O=C(c1nccs1)N1CCc2nc[nH]c2C1c1nc2ccc(F)cc2s1` (centres unmarked) [listing 2 of 2 here]: the concentration at half-maximal activity (AC50) (24 hrs with compound) was > 5000 nM. `O=C(c1cn(CC2CC(F)(F)C2)nc1Cl)N1CCc2[nH]cnc2[C@@H]1c1nc2c(F)cccc2s1` [Example 2004, (R)-(3-chloro-1-((3,3-difluorocyclobutyl)methyl)-1H-pyrazol-4-yl)(4-(4-fluorobenzo[d]thiazol-2-yl)-6,7-dihydro-1H-imidazo[4,5-c]pyridin-5(4H)-yl)methanone]: the half-maximal activity concentration (AC50) (24 hrs compound incubation) fell in the range of 1000 to 5000 nM. On the same count and under the same terms, for `O=C(c1nncs1)N1CCc2[nH]cnc2[C@H]1c1nc2cc(F)ccc2s1` [Example 1299, (S)-(4-(5-fluorobenzo[d]thiazol-2-yl)-6,7-dihydro-1H-imidazo[4,5-c]pyridin-5(4H)-yl)(1,3,4-thiadiazol-2-yl)methanone] the value was 1000 to 5000 nM.

Consider `Cn1nc(C2CC2)nc1C(=O)N1CCc2[nH]cnc2C1c1nc2ccccc2s1` (centres unmarked), for which, where the note is “24 hrs with compound”, the AC50 lay within 1000 to 5000 nM. For the molecule `COCCc1ccc2c(C(=O)N3CCc4[nH]cnc4[C@@H]3c3nc4ccccc4s3)c(C#N)nn2c1` [Example 1868, (R)-3-(4-(benzo[d]thiazol-2-yl)-4,5,6,7-tetrahydro-1H-imidazo[4,5-c]pyridine-5-carbonyl)-6-(2-methoxyethyl)pyrazolo[1,5-a]pyridine-2-carbonitrile], the half-maximal activity concentration (AC50) (24 hrs compound incubation) was 1000 to 5000 nM.

Consider `CC(C)(O)c1nc(C(F)F)c(C(=O)N2CCc3[nH]cnc3[C@H]2c2nc3c(C(F)(F)F)cccc3s2)o1` [Example 2103, (S)-(4-(difluoromethyl)-2-(2-hydroxypropan-2-yl)oxazol-5-yl)(4-(4-(trifluoromethyl)benzo[d]thiazol-2-yl)-6,7-dihydro-1H-imidazo[4,5-c]pyridin-5(4H)-yl)methanone], for which the concentration at half-maximal activity (AC50) (24 hrs compound incubation) is < 500 nM. For `O=C(c1cnn2ccc(Br)cc12)N1CCc2[nH]cnc2[C@@H]1c1nc2cccc(F)c2s1` [Example 1284, (R)-(5-bromopyrazolo[1,5-a]pyridin-3-yl)(4-(7-fluorobenzo[d]thiazol-2-yl)-6,7-dihydro-1H-imidazo[4,5-c]pyridin-5(4H)-yl)methanone], for the setting “24 hrs compound incubation”, the AC50 was in the range of 1000 to 5000 nM.

Regarding `O=C(c1nnc(-n2cccn2)o1)N1CCc2[nH]cnc2[C@@H]1c1nc2ccccc2s1` [Example 1791, (R)-(5-(1H-pyrazol-1-yl)-1,3,4-oxadiazol-2-yl)(4-(benzo[d]thiazol-2-yl)-6,7-dihydro-1H-imidazo[4,5-c]pyridin-5(4H)-yl)methanone], the AC50 (24 hrs compound incubation) was in the range of 1000 to 5000 nM.

For the molecule `O=C(c1cn[nH]c1Cl)N1CCc2[nH]cnc2[C@H]1c1nc2c(F)cccc2s1` [Example 1862], for the setting “24 hrs compound incubation”, the concentration at half-maximal activity (AC50) lay within 500 to 1000 nM.
